The target in the assay is T1, AR (LNCaP cells, which carry the T878A AR mutation) (Homo sapiens, UniProt P10275, T878A).
T1 construct: LNCaP cells, which carry the T878A AR mutation; endogenous in cells; host or cells: LNCaP (LN-ARR2PB-eGFP)
T1 sequence (P10275 1-920 T878A): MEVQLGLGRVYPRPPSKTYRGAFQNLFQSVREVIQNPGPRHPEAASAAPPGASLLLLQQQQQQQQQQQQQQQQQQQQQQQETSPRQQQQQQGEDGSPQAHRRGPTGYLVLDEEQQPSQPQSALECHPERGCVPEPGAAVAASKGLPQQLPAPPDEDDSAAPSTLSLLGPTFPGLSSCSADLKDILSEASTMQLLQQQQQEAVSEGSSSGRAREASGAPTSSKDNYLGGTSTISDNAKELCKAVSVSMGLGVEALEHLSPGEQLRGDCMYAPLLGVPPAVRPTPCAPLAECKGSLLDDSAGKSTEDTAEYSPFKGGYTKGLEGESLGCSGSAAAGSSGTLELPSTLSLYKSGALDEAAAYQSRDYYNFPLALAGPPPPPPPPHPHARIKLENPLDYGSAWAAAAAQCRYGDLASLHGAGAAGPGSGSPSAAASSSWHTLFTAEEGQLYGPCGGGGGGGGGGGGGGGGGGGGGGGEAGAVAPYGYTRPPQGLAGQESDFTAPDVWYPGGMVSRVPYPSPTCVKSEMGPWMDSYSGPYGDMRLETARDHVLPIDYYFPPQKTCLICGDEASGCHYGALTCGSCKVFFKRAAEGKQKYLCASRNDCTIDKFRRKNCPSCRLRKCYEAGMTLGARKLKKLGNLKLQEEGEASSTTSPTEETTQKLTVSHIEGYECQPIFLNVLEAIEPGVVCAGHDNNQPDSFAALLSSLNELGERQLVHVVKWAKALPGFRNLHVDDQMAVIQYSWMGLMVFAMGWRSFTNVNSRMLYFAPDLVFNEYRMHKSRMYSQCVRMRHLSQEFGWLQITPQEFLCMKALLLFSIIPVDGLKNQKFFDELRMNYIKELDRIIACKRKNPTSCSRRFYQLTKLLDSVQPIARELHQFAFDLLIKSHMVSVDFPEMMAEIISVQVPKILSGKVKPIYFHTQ
In words: eGFP cellular AR transcription assay in LNCaP cells (LN-ARR2PB-eGFP). It is filed as cell-based. Particulars: LNCaP, with R1881, high concentrations. The procedure: AR transcriptional activity was assayed as previously described. Briefly, LNCaP human prostate cancer cells (LN-ARR2PB-eGFP), stably transfected with eGFP reporter driven by an androgen responsive probasin-derived promoter (ARR2PB), were grown in phenol red free RPMI 1640 media supplemented with 5% charcoal stripped serum (CSS). After 5 days, the cells were plated into a 96-well plate (35,000 cells/well) with 0.1 nM of the synthetic androgen R1881 and increasing concentrations (0−100 μM) of test compounds. Fluorescence (excitation 485 nm, emission 535 nm) was measured after 3 days of incubation with the compounds.

Regarding `COc1c(F)cccc1-c1csc(N2CCOCC2)n1` [VPC14368, 4-(4-(3-fluoro-2-methoxyphenyl)thiazol-2-yl)morpholine], the “Partial agonistic effect in eGFP assay” value was “partial agonistic effect”.
